From US11427548B2 (Arvinas Operations, Inc., priority 2015, dated 2022) come the findings set out here.

A word on the DC50: it is the concentration giving 50% degradation. By Dmax is commonly meant the greatest extent of degradation seen.

The assay has as its target T1, Androgen Receptor (Homo sapiens, UniProt P10275).
T1 construct: endogenous in cells; host or cells: VCaP cells
T1 sequence (P10275 1-920): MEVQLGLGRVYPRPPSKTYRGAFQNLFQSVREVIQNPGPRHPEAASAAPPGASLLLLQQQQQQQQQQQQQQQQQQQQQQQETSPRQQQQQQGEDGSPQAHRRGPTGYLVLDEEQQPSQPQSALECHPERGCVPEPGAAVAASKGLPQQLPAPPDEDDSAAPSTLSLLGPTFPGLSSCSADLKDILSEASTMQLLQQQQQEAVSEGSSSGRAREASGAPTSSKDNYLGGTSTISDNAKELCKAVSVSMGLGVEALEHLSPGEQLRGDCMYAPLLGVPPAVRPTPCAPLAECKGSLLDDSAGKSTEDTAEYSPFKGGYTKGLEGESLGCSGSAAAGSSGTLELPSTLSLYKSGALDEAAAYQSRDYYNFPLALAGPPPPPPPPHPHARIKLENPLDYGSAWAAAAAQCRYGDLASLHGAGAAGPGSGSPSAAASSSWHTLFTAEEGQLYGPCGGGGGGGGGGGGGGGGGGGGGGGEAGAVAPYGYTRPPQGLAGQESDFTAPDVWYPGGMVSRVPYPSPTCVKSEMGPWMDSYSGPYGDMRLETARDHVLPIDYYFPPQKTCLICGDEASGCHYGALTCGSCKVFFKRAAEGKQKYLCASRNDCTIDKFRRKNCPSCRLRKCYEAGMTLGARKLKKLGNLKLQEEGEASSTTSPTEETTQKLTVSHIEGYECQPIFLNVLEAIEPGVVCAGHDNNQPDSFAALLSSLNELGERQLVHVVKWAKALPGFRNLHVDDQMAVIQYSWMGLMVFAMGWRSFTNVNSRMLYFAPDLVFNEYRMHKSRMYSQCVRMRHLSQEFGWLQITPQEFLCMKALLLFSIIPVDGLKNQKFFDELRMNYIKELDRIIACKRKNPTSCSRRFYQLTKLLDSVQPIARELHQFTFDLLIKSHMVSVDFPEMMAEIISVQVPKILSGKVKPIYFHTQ
Kind of assay: Androgen Receptor ELISA assay (PathScan AR ELISA) in VCaP cells: AR degradation, Dmax and DC50. Format: cell-based. The gist of the method:
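VCaP cells, 30,000/well, grown ≥3 days in phenol red-free RPMI with 5% charcoal-stripped FBS; compound added in 0.1% DMSO with 0.1 nM R1881, 7 half-log doses, 24 h. Lysate AR quantified by PathScan sandwich ELISA, HRP/TMB read at 450 nm, giving DC50 and Dmax.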

[1] abbreviates: VCaP cells; Table 36; read-out: VCaP DC50.
Where [2] appears, read: VCaP, VCaP cells; Table 36; read-out: VCaP Dmax (%).

Read-outs that look alike come from different tables or passages of the source.

Take `Cc1ncsc1-c1ccc(C(CO)NC(=O)C2C[C@@H](O)CN2C(=O)[C@@H](NC(=O)COCCN2CCN(c3ccc(C(=O)N[C@H]4C(C)(C)[C@H](Oc5ccc(C#N)c(Cl)c5)C4(C)C)cn3)CC2)C(C)(C)C)cc1` (stereo partly drawn) [Example 671, N-((1r,3r)-3-(3-chloro-4-cyanophenoxy)-2,2,4,4-tetramethylcyclobutyl)-6-(4-(2-(2-(((S)-1-((2S,4R)-4-hydroxy-2-((2-hydroxy-1-(4-(4-methylthiazol-5-yl)phenyl)ethyl)carbam-oyl)pyrrolidin-1-yl)-3,3-dimethyl-1-oxobutan-2-yl)amino)-2-oxoethoxy)ethyl)pipera-zin-1-yl)nicotinamide]: under setting [1], the DC50 was under 50 nM. Besides, the Dmax under setting [2] was over 71%.

Consider `Cc1ncsc1-c1ccc(CNC(=O)[C@@H]2C[C@@H](O)CN2C(=O)[C@@H](NC(=O)CN2CCC3(CC2)CCN(c2ccc(C(=O)N[C@H]4C(C)(C)[C@H](Oc5ccc(C#N)c(Cl)c5)C4(C)C)cn2)CC3)C(C)(C)C)cc1` [Example 672, N-((1r,3r)-3-(3-chloro-4-cyanophenoxy)-2,2,4,4-tetramethylcyclobutyl)-6-(9-(2-(((S)-1-((2S,4R)-4-hydroxy-2-((4-(4-methylthiazol-5-yl)benzyl)carbamoyl)pyr-rolidin-1-yl)-3,3-dimethyl-1-oxobutan-2-yl)amino)-2-oxoethyl)-3,9-diazaspiro[5.5]undecan-3-yl)nicotinamide], for which, under setting [1], the half-maximal degradation concentration (DC50) is under 50 nM. In addition, the Dmax under setting [2] lay in the range of 51 to 70%.

Consider `C[C@H](NC(=O)[C@@H]1C[C@@H](O)CN1C(=O)[C@@H](NC(=O)COCCN1CCN(c2ccc(C(=O)N[C@H]3C(C)(C)[C@H](Oc4ccc(C#N)c(Cl)c4)C3(C)C)cn2)CC1)C(C)(C)C)c1ccc(-c2scnc2CO)cc1` [Example 673, N-((1r,3r)-3-(3-chloro-4-cyanophenoxy)-2,2,4,4-tetramethylcyclobutyl)-6-(4-(2-(2-(((S)-1-((2S,4R)-4-hydroxy-2-(((S)-1-(4-(4-(hydroxymethyl)thiazol-5-yl)phenyl)ethyl)carbam-oyl)pyrrolidin-1-yl)-3,3-dimethyl-1-oxobutan-2-yl)amino)-2-oxoethoxy)ethyl)pipera-zin-1-yl)nicotinamide], for which the DC50 under setting [1] is under 50 nM. The maximal degradation (Dmax) under setting [2] is over 71%.

As to `Cc1ncsc1-c1ccc([C@H](C)NC(=O)C2C[C@@H](O)CN2C(=O)[C@@H](NC(=O)CN2CCN(CCC3(c4ccc(C(=O)N[C@H]5C(C)(C)[C@H](Oc6ccc(C#N)c(C(F)(F)F)c6)C5(C)C)cc4)COC3)CC2)C(C)(C)C)cc1` (stereo partly drawn) [Example 674, (2S,4R)-1-((S)-2-(2-(4-(2-(3-(4-(((1r,3r)-3-(4-cyano-3-(trifluoromethyl)phenoxy)-2,2,4,4-tetramethylcyclobutyl)carbamoyl)phenyl)oxetan-3-yl)ethyl)piperazin-1-yl)acetamido)-3,3-dimethylbutanoyl)-4-hydroxy-N-((S)-1-(4-(4-methylthiazol-5-yl)phenyl)ethyl)pyrrolidine-2-carboxamide], the DC50 under setting [1] was under 50 nM. In addition, the Dmax (VCaP, read-out: VCaP Dmax (%)) is 51 to 70%.

Regarding `Cc1ncsc1-c1ccc([C@H](C)NC(=O)[C@@H]2C[C@@H](O)CN2C(=O)[C@@H](NC(=O)CN2CCO[C@H](CN3CCO[C@H](COc4ccc(N5C(=S)N(c6ccc(C#N)c(C(F)(F)F)c6)C(=O)C5(C)C)cc4)C3)C2)C(C)(C)C)cc1` [Example 675, (2S,4R)-1-((S)-2-(2-((R)-2-(((S)-2-((4-(3-(4-cyano-3-(trifluoromethyl)phenyl)-5,5-dimethyl-4-oxo-2-thioxoimidazolidin-1-yl)phenoxy)methyl)mor-pholino)methyl)mor-pholino)acetamido)-3,3-dimethylbutanoyl)-4-hydroxy-N-((S)-1-(4-(4-methylthiazol-5-yl)phenyl)ethyl)pyrrolidine-2-carboxamide], the 50% degradation concentration (DC50) (read-out: VCaP DC50; VCaP cells; Table 36) was over 501 nM.
